# Experimental data reported in patent US10294227B2, “Compounds” (UNIVERSITY COURT OF THE UNIVERSITY OF EDINBURGH, priority 2015, dated 2019).
# Where two headings read alike, the source gives them in different places.
# How the values were obtained:
# FGR = FGR (Homo sapiens (Human), UniProt P09769); test: Kinase screening assay (IC50)
# mTOR = mTOR (Homo sapiens (Human), UniProt P42345); test: Kinase screening assay (IC50); format: biochemical
# HCK = HCK (Homo sapiens (Human), UniProt P08631); test: Kinase screening assay (IC50)
# Sequence of HCK (P08631 whole entry): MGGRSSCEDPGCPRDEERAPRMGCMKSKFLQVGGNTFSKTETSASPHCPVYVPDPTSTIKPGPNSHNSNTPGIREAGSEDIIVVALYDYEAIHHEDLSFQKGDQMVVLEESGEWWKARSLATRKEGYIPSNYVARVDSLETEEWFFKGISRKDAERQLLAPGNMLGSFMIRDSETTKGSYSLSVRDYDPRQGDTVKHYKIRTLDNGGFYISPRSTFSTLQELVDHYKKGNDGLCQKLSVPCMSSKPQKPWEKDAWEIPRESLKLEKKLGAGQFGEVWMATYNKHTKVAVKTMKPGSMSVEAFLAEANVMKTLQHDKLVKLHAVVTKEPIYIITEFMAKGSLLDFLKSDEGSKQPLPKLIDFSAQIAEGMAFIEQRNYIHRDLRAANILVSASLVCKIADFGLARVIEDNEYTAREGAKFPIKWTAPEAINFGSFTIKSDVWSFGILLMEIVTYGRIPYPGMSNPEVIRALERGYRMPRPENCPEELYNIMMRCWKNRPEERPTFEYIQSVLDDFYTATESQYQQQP
# CYP2C9 = CYP2C9 (Homo sapiens (Human), UniProt P11712); test: CYP P450 inhibition
# [1] = Liver microsome stability; format: in vitro ADME; details: % of unmodified drug after 30 min incubation with liver microsomes
# FRK/PTK5 = FRK/PTK5 (Homo sapiens (Human), UniProt P42685); test: Kinase screening assay (IC50)
# Sequence of FRK/PTK5 (P42685 whole entry): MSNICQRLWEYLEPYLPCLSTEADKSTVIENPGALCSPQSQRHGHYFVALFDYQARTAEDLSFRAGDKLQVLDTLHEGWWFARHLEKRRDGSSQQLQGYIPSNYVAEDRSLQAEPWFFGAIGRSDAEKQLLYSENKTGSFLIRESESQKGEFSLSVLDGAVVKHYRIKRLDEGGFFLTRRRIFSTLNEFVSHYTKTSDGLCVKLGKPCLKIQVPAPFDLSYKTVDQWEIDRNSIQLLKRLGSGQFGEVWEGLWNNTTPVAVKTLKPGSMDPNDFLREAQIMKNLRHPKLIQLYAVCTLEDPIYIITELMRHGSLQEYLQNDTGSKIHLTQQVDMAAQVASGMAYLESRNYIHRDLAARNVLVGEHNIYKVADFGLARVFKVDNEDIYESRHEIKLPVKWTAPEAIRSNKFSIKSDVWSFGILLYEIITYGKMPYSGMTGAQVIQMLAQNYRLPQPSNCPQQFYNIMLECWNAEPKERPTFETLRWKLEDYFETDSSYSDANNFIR
# LYN = LYN (Homo sapiens (Human), UniProt P07948); test: Kinase screening assay (IC50)
# Sequence of LYN (P07948 whole entry): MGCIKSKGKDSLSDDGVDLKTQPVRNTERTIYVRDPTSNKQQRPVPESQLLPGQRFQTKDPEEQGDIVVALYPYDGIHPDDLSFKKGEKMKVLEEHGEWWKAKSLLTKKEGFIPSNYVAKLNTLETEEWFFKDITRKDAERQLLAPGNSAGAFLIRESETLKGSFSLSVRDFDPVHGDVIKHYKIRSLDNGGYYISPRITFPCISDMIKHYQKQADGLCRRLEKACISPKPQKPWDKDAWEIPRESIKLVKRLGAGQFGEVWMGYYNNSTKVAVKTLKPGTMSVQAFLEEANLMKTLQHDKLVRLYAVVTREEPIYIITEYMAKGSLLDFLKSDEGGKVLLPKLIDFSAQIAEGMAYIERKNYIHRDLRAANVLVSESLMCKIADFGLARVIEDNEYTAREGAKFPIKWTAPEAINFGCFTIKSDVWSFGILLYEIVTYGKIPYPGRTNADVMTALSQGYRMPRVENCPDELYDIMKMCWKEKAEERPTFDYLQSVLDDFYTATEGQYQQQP
# LCK = LCK (Homo sapiens (Human), UniProt P06239); test: Kinase screening assay (IC50)
# [2] = human, serum
# CYP1A2 = CYP1A2 (Homo sapiens (Human), UniProt P05177); test: in vitro
# Sequence of CYP1A2 (P05177 whole entry): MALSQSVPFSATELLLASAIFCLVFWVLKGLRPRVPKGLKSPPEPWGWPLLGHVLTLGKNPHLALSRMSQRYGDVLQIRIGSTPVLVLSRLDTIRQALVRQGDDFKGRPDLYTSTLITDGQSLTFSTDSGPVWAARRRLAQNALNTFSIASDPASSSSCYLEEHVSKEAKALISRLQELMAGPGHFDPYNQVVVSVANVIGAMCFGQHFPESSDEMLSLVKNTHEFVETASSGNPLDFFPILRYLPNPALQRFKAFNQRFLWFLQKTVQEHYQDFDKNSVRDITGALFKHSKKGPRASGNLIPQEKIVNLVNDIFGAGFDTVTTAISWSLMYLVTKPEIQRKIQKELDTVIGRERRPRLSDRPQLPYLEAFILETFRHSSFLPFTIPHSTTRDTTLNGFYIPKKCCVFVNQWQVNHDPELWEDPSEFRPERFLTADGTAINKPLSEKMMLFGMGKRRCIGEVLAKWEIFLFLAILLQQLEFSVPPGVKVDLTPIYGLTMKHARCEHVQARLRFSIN
# KIT = KIT (Homo sapiens (Human), UniProt P10721); test: Kinase screening assay (IC50)
# BLK = BLK (Homo sapiens (Human), UniProt P51451); test: Kinase screening assay (IC50)
# Sequence of BLK (P51451 whole entry): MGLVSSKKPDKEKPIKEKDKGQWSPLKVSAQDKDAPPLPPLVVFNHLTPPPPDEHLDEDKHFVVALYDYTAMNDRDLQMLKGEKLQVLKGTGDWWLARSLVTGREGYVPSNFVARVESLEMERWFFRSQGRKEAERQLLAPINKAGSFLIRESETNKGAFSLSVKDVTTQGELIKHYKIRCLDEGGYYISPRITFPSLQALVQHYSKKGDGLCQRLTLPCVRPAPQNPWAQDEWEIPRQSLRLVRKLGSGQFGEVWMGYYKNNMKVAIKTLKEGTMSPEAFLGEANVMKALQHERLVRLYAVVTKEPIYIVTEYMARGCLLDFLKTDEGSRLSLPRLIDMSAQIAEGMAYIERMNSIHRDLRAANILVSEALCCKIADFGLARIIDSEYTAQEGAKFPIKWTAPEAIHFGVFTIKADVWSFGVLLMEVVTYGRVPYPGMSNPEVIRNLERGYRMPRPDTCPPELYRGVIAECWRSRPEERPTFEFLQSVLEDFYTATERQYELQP
# CYP3A4 = CYP3A4 (Homo sapiens (Human), UniProt P08684); test: CYP P450 inhibition
# FYN = FYN (Homo sapiens (Human), UniProt P06241); test: Kinase screening assay (IC50)
# PDGFRa = PDGFRa (Homo sapiens (Human), UniProt P16234); test: Kinase screening assay (IC50); format: biochemical
# CYP2D6 = CYP2D6 (Homo sapiens (Human), UniProt P10635); test: CYP P450 inhibition
# Sequence of CYP2D6 (P10635 whole entry): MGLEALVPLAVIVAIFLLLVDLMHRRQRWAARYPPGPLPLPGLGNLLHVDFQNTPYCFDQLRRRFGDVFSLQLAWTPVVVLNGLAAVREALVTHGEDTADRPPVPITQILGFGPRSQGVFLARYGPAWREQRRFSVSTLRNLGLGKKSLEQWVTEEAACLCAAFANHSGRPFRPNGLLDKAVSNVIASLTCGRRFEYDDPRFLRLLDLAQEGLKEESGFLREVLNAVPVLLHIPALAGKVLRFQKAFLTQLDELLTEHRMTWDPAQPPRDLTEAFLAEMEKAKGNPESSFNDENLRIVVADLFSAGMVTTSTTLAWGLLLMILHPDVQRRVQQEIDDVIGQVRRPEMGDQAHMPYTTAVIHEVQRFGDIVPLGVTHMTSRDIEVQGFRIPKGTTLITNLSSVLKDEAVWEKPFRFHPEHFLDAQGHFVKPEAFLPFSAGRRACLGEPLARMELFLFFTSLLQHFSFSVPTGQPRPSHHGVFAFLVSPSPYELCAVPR
# hERG channel [3] = biological target: T1, hERG channel (Homo sapiens (Human), UniProt Q12809); test: hERG Safety Assay, Ionworks high-throughput electrophysiology
# T1 sequence (Q12809 whole entry): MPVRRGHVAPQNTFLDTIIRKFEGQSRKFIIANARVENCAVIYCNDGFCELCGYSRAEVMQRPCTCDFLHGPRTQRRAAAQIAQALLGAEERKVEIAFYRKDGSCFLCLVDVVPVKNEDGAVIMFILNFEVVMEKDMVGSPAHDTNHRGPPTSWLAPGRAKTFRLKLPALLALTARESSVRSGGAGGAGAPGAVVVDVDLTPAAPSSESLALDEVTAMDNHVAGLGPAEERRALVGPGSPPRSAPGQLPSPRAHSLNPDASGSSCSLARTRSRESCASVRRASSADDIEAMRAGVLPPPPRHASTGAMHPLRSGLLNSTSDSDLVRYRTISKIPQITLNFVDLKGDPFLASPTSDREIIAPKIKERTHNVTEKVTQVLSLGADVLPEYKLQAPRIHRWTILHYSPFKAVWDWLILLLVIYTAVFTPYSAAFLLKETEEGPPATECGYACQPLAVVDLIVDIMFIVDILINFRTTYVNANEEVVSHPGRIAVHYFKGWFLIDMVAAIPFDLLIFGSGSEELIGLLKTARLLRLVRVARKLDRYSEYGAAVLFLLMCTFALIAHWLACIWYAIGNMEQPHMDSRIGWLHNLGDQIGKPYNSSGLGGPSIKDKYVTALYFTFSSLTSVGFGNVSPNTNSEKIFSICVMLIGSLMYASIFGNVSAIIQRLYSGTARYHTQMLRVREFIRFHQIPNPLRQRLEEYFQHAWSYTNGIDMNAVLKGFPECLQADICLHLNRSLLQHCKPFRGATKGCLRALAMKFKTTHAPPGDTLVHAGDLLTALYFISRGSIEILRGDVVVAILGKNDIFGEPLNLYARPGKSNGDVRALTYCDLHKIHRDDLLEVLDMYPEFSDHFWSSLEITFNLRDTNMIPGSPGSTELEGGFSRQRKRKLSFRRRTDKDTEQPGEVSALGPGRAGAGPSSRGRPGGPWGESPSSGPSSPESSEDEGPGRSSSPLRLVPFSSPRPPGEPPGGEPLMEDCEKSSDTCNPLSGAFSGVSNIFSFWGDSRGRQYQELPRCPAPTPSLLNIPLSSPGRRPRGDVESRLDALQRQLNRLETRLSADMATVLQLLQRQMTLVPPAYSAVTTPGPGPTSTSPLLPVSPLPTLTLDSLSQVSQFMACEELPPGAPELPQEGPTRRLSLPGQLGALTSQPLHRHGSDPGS
# RET = RET (Homo sapiens (Human), UniProt P07949); test: Kinase screening assay (IC50)
# CYP2C19 = CYP2C19 (Homo sapiens (Human), UniProt P33261); test: CYP P450 inhibition
# Sequence of CYP2C19 (P33261 whole entry): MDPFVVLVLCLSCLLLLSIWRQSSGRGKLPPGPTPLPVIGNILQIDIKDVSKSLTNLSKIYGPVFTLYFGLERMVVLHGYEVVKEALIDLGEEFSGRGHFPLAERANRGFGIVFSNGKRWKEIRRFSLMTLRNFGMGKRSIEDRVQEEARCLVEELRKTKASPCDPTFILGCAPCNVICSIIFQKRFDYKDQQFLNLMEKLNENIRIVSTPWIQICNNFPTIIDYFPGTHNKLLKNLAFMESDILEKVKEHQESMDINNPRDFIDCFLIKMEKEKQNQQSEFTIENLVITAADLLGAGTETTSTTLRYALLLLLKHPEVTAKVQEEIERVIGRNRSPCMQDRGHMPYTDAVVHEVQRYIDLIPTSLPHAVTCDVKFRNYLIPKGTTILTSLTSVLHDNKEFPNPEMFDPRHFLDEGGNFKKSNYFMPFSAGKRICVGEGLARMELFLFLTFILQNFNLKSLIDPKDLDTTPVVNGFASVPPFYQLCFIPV
# YES = YES (Homo sapiens (Human), UniProt P07947); test: Kinase screening assay (IC50)
# [4] = rat, serum
# hERG channel [5] = biological target: T1, hERG channel; test: Predictor hERG Fluorescence Polarization Assay; format: binding; details: fluorescence polarization kit; read-out: hERG channel inhibition IC50
# Description: These experiments corroborated the safety of the compounds.
# [6] = Stability in mouse plasma; format: in vitro ADME; details: % of unmodified drug after 120 min in plasma
# Stability in rat plasma = details: % of unmodified drug after 120 min in plasma
# [7] = Stability in human plasma; format: in vitro ADME; details: % of unmodified drug after 120 min in plasma
# [8] = PBS, aqueous buffer
# in vivo = details: female, mouse
# [9] = mouse, in vivo
# [10] = read-out: Kinase Screening (IC50) FGR, Src Family
# [11] = read-out: Target inhibition (IC50) FGR, 10 μM ATP
# [12] = 10 μM ATP, read-out: Target inhibition (IC50) mTOR
# [13] = read-out: Kinase Screening (IC50) mTOR
# [14] = read-out: Kinase Screening (IC50) HCK, Src Family
# [15] = read-out: Target inhibition (IC50) HCK, 10 μM ATP
# [16] = read-out: Kinase Screening (IC50) FRK, Src Family
# [17] = read-out: Target inhibition (IC50) FRK/PTK5, 10 μM ATP
# [18] = read-out: Kinase Screening (IC50) LYN, Src Family
# [19] = read-out: Target inhibition (IC50) LYN, 10 μM ATP
# [20] = read-out: Kinase Screening (IC50) LCK, Src Family
# [21] = read-out: Target inhibition (IC50) LCK, 10 μM ATP
# [22] = read-out: Kinase Screening (IC50) c-KIT
# [23] = read-out: Target inhibition (IC50) KIT, 10 μM ATP
# [24] = read-out: Kinase Screening (IC50) BLK, Src Family
# [25] = read-out: Target inhibition (IC50) BLK, 10 μM ATP
# [26] = read-out: Kinase Screening (IC50) FYN, Src Family
# [27] = read-out: Target inhibition (IC50) FYN, 10 μM ATP
# [28] = 10 μM ATP, read-out: Target inhibition (IC50) PDGFRa
# [29] = read-out: Kinase Screening (IC50) PDGFRa
# [30] = read-out: Kinase Screening (IC50) RET
# [31] = read-out: Target inhibition (IC50) RET, 10 μM ATP
SMILES,IC50 (FGR; [10]),IC50 (FGR; [11]),IC50 (mTOR; [12]),IC50 (mTOR; [13]),inhibition at 10 µM (CYP2C9),30 min Liver Microsome stability [1],IC50 (LYN; [18]),IC50 (LYN; [19]),IC50 (LCK; [20]),IC50 (LCK; [21]),fraction unbound [2],inhibition at 10 µM (CYP1A2),IC50 (KIT; [22]),IC50 (FYN; [26]),IC50 (FYN; [27]),IC50 (PDGFRa; [28]),IC50 (PDGFRa; [29]),IC50 (hERG channel [3]),IC50 (RET; [30]),IC50 (RET; [31]),also measured
"COc1cc(-c2nn(CCN3CCC(N4CCCC4)CC3)c3ncnc(N)c23)ccc1NC(=O)OC(C)(C)C [Compound 518, tert-butyl N-[4-[4-amino-1-[2-(4-pyrrolidin-1-yl-1-piperidyl)ethyl]pyrazolo[3,4-d]pyrimidin-3-yl]-2-methoxy-phenyl]carbamate]",< 10 nM,< 10 nM,> 1000 nM,> 1000 nM,-92.3%,87.0%,< 10 nM,< 10 nM,< 10 nM,< 10 nM,0.172,6.9%,> 1000 nM,< 10 nM,< 10 nM,> 1000 nM,> 1000 nM,20.1 µM,> 1000 nM,> 1000 nM,"IC50 (HCK; [14]): < 10 nM; IC50 (HCK; [15]): < 10 nM; IC50 (FRK/PTK5; [16]): < 10 nM; IC50 (FRK/PTK5; [17]): < 10 nM; IC50 (KIT; [23]): > 1000 nM; IC50 (BLK; [24]): < 10 nM; IC50 (BLK; [25]): < 10 nM; inhibition at 10 µM (CYP3A4): -29.8%; inhibition at 10 µM (CYP2D6): 6.7%; inhibition at 10 µM (CYP2C19): -6.5%; IC50 (YES; read-out: Kinase Screening (IC50) YES, Src Family): < 10 nM; IC50 (YES; read-out: Target inhibition (IC50) YES, 10 μM ATP): < 10 nM; fraction unbound [4]: 0.134"
"COc1cc(-c2nn(CCN3CCC(N(C)C)CC3)c3ncnc(N)c23)ccc1NCc1ccccc1 [Compound 533, 3-[4-(benzylamino)-3-methoxy-phenyl]-1-[2-[4-(dimethylamino)-1-piperidyl]ethyl]pyrazolo[3,4-d]pyrimidin-4-amine]",< 10 nM,< 10 nM,> 1000 nM,> 1000 nM,-35.4%,98.8%,< 10 nM,< 10 nM,< 10 nM,< 10 nM,0.118,8.3%,100 to 1000 nM,< 10 nM,< 10 nM,> 1000 nM,> 1000 nM,2.55 µM,> 1000 nM,> 1000 nM,IC50 (HCK; [14]): < 10 nM; IC50 (HCK; [15]): < 10 nM; IC50 (hERG channel [5]): 10 to 15 µM; IC50 (KIT): 100 to 1000 nM; IC50 (BLK; [24]): < 10 nM; IC50 (BLK; [25]): < 10 nM; inhibition at 10 µM (CYP3A4): 3.1%; inhibition at 10 µM (CYP2D6): 7.4%; inhibition at 10 µM (CYP2C19): 26.8%; fraction unbound [4]: 0.106
"CN(C)C1CCN(CCn2nc(-c3ccc(CC(=O)OC(C)(C)C)cc3)c3c(N)ncnc32)CC1 [Compound 553, tert-butyl 2-[4-[4-amino-1-[2-[4-(dimethylamino)-1-piperidyl]ethyl]pyrazolo[3,4-d]pyrimidin-3-yl]phenyl]acetate]",< 10 nM,< 10 nM,> 1000 nM,> 1000 nM,,,< 10 nM,< 10 nM,< 10 nM,< 10 nM,,,> 1000 nM,< 10 nM,< 10 nM,> 1000 nM,> 1000 nM,12.6 µM,> 1000 nM,> 1000 nM,Stability in mouse plasma [6]: 70.4%; IC50 (KIT; [23]): > 1000 nM; Stability in rat plasma (Stability in rat plasma): 68.2%; Stability in human plasma [7]: 98.3%
"COc1cc(-c2nn(CCN3CCC(N(C)C)CC3)c3ncnc(N)c23)ccc1CC(=O)OC(C)(C)C [Compound 565, tert-butyl 2-[4-[4-amino-1-[2-[4-(dimethylamino)-1-piperidyl]ethyl]pyrazolo[3,4-d]pyrimidin-3-yl]-2-methoxy-phenyl]acetate]",< 10 nM,< 10 nM,> 1000 nM,> 1000 nM,-35.8%,78.7%,< 10 nM,< 10 nM,< 10 nM,< 10 nM,0.177,4.3%,> 1000 nM,< 10 nM,< 10 nM,> 1000 nM,> 1000 nM,> 25 µM,> 1000 nM,> 1000 nM,solubility [8]: > 100 mg/mL; IC50 (FRK/PTK5; [16]): < 10 nM; IC50 (FRK/PTK5; [17]): < 10 nM; Stability in mouse plasma [6]: 100%; IC50 (KIT; [23]): > 1000 nM; bioavailability (in vivo): 52%; half-life (in vivo): 120 min; bioavailability (in vivo; po): 52%; IC50 (BLK; [24]): < 10 nM; IC50 (BLK; [25]): < 10 nM; inhibition at 10 µM (CYP3A4): 5.7%; Stability in rat plasma (Stability in rat plasma): 93.3%^; inhibition at 10 µM (CYP2D6): 9.4%; toxic effects in PK study [9]: no toxic effects; inhibition at 10 µM (CYP2C19): -0.4%; Stability in human plasma [7]: 94%; fraction unbound [4]: 0.139
"Cc1nc(Nc2ncc(C(=O)Nc3c(C)cccc3Cl)s2)cc(N2CCN(CCO)CC2)n1 [Dasatinib, reference compound]",,,,,,,,,,,0.06,,,,,,,,,,solubility [8]: < 0.1 mg/mL
"COc1ccc([C@@H]2Sc3ccccc3N(CCN(C)C)C(=O)[C@@H]2OC(C)=O)cc1 [Diltiazem, reference compound]",,,,,,,,,,,,,,,,,,,,,Stability in rat plasma (Stability in rat plasma): 21.5%
"CC1CC(OC(=O)C(O)c2ccccc2)CC(C)(C)N1C (centres unmarked) [Eucatropine, reference compound]",,,,,,,,,,,,,,,,,,,,,Stability in mouse plasma [6]: 20.3%; Stability in human plasma [7]: 10.5%
